Laboratory results as given in PMC7303124, “RPamide neuropeptides NLP-22 and NLP-2 act through GnRH-like receptors to promote sleep and wakefulness in C. elegans” (Scientific Reports, 2020).
Values joined by “and” are separate entries in the source; they are usually repeats but may differ in a detail not shown here. Equal values may be shown once. Where a SMILES comes first, the peptide text is derived from it.

Key:
[1] = biological target: T1, GNRR-3 (Caenorhabditis elegans, UniProt Q23265); assay: Receptor activation assay (aequorin calcium mobilization), GNRR-3 co-expressed with promiscuous Gα16 in CHO cells; format: cell-based, C. elegans; details: for EC50: CHO cells stably expressing apo-aequorin and Gα16, transiently transfected receptor, aequorin luminescence relative to total calcium response, mean EC50, N = 5–7 replicates, 95% confidence interval given; for Activation of GNRR-3 (in words): CHO/apo-aequorin/Gα16 calcium mobilization assay, peptides initially tested at 10 µM
T1 sequence (Q23265 1-395): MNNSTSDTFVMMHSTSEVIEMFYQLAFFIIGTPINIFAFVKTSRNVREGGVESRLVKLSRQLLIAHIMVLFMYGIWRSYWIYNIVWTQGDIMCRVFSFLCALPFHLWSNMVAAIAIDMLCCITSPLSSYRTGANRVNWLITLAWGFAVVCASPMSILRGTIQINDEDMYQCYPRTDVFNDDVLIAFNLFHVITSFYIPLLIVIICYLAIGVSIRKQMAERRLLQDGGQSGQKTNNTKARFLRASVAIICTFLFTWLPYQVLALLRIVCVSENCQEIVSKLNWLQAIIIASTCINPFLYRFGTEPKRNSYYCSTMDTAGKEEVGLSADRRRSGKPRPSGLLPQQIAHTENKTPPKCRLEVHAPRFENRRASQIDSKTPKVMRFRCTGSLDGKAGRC
Source text: (§1) We tested a C. elegans peptide library for the ability to activate these seven receptors using an in vitro calcium mobilization assay. We cloned and transiently expressed each of the seven GNRRs in Chinese hamster ovary (CHO) cells stably expressing apo-aequorin and the human promiscuous Gα16 protein. These cells were challenged with a synthetic library of over 340 C. elegans peptides of the RFamide (FLP) and neuropeptide-like protein (NLP) families. […] Peptides encoded by nlp-2 and nlp-23 potently activated GNRR-3 with EC50 values in the nanomolar range. By contrast, NLP-22 activated GNRR-3 with far lower potency (EC50 value > 6 µM), which may be physiologically irrelevant. GNRR-6 was potently activated by NLP-22 and NLP-23 peptides. Peptides encoded by nlp-2 also activated GNRR-6, although with a higher EC50 value than NLP-22 and NLP-23. […] In short, we identified the neuropeptides encoded by nlp-2, nlp-22 and nlp-23 as bioactive ligands of the GnRH/AKH-like receptors GNRR-3 and GNRR-6 in vitro.
(§2) Figure 2 NLP-2, NLP-22, and NLP-23 peptides activate GNRR-3 and GNRR-6 in vitro. Dose-response curves for GNRR-3 (A) and GNRR-6 (B) co-expressed in CHO cells with a promiscuous Gα16 protein are shown as relative (%) to the highest value (100% activation) after normalization to the total calcium response. Each data point represents the mean ± SEM of N = 5–7 replicates for each peptide. (C) Amino acid (AA) sequences of RPamide neuropeptides activating GNRR-3 and GNRR-6 with their respective mean EC50 values and 95% Confidence intervals.
(§3) Peptides were custom-synthesized by GL Biochem Ltd. All peptides were initially tested at a concentration of 10 µM. Receptor activating peptides were purified using reverse-phase HPLC and verified using MALDI TOF mass spectrometry. Peptide concentrations were determined with a bicinchoninic acid (BCA) assay. For receptor activation assays, peptides were first lyophilized and then diluted to the desired concentrations.
(§4) Chinese hamster ovary (CHO) cells stably expressing apo-aequorin and the promiscuous Gα16 subunit were used for receptor deorphanization (ES-000-A24, Perkin-Elmer). To characterize downstream signaling, CHO cells stably expressing apo-aequorin but lacking the promiscuous Gα16 protein were used (ES-000-A12, Perkin-Elmer). Cells were cultured in Dulbecco’s Modified Eagle’s Medium Nutrient Mixture Ham F-12 (DMEM/F-12, Invitrogen) to which 1% penicillin/streptomycin, 2.5 µg/ml amphotericin B, and 10% fetal bovine serum (Sigma-Aldrich) were added. Growth medium was supplemented with 250 µg/ml zeocin or 5 µg/ml puromycin, which serves as a selection reagent for CHO cells with or without the promiscuous Gα16 subunit, respectively. Cells were grown as a monolayer at 37 °C, 5% CO2 and high humidity. For transfection, 3.75 ml Opti-MEM I (Invitrogen), 7.5 µg pcDNA3.1 construct and 18.75 µl Plus reagent (Invitrogen) were gently mixed in a polystyrene tube. After incubation for 5 minutes at room temperature, 45 µl Lipofectamine LTX (Invitrogen) was added and gently mixed. The transfection reagent was incubated for 30 min at room temperature. Growth medium was removed leaving 3 ml and the transfection reagents were added dropwise to the cells. Transfected cells were grown overnight and 20 ml growth medium was added the next day. Cells were grown one more day before the assay at 28 °C.
(§5) Two days after transfection, CHO cells were detached from the surface of the culture flask using phosphate buffered saline with 0.2% EDTA and collected in 10 ml colorless DMEM/F-12 (11039, Gibco). Cell viability was measured using a NucleoCounter NC-100 (Chemometic). Cells were pelleted for 4 min at 800 rpm at room temperature and resuspended to a concentration of 5 × 10^6 cells/ml in colorless DMEM/F12 with 0.1% bovine serum albumin (BSA). 5 µM coelenterazine H (Invitrogen) was added to the cell suspension. […]

[2] = biological target: T2, GNRR-6 (Caenorhabditis elegans, UniProt Q19399); assay: Receptor activation assay (aequorin calcium mobilization), GNRR-6 co-expressed with promiscuous Gα16 in CHO cells; format: cell-based, C. elegans; details: for EC50: CHO cells stably expressing apo-aequorin and Gα16, transiently transfected receptor, aequorin luminescence relative to total calcium response, mean EC50, N = 5–7 replicates, 95% confidence interval given; for Activation of GNRR-6 (in words): CHO/apo-aequorin/Gα16 calcium mobilization assay, peptides initially tested at 10 µM
T2 sequence (Q19399 1-400): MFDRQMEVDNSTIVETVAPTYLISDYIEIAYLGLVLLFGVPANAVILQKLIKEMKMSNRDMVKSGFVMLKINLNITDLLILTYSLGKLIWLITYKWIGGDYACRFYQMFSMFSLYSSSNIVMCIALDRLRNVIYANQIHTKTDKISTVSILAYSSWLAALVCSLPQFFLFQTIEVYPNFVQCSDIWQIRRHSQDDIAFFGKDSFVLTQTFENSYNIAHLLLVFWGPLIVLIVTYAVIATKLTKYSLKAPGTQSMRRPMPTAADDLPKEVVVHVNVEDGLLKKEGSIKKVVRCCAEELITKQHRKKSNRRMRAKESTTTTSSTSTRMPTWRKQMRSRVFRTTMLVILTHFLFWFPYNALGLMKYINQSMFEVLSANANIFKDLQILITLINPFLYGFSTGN
Source text: as §1, §2, §3, §4, §5

| Compound | EC50 [1] | EC50 [2] [nM] | Activation of GNRR-3 (in words) [1] | Activation of GNRR-6 (in words) [2] |
| --- | --- | --- | --- | --- |
| CSCC[C@H](NC(=O)[C@H](C)NC(=O)[C@H](CCSC)NC(=O)[C@@H](N)CO)C(=O)NCC(=O)N[C@@H](CCCNC(=N)N)C(=O)N[C@@H](CC(C)C)C(=O)NCC(=O)N[C@@H](CC(C)C)C(=O)N[C@@H](CCCNC(=N)N)C(=O)N1CCC[C@H]1C(N)=O [NLP-2-2] (H-SMAMGRLGLRP-NH2; N-terminus assumed) | 558 nM | 542 | activated these receptors in a dose-dependent manner | activated these receptors in a dose-dependent manner |
| LYISRQGFRPA [NLP-23-1, NLP-23 derived peptide … lacking the C-terminal glycine amidation target] | – | – | did not activate | did not activate |

More lines, in order of falling EC50 [2], values ahead:

| EC50 [1] | EC50 [2] [nM] | Compound | Activation of GNRR-3 (in words) [1] | Activation of GNRR-6 (in words) [2] |
| --- | --- | --- | --- | --- |
| 3300 nM | 169 | CSCC[C@H](NC(=O)[C@@H](N)CO)C(=O)N[C@@H](C)C(=O)N[C@@H](Cc1ccc(O)cc1)C(=O)NCC(=O)N[C@@H](CCCNC(=N)N)C(=O)N[C@@H](CCC(N)=O)C(=O)NCC(=O)N[C@@H](Cc1ccccc1)C(=O)N[C@@H](CCCNC(=N)N)C(=O)N1CCC[C@H]1C(N)=O [NLP-2-3] (H-SMAYGRQGFRP-NH2; N-terminus assumed) | activated these receptors in a dose-dependent manner | activated these receptors in a dose-dependent manner |
| 81000 nM | 135 | CC[C@H](C)[C@H](NC(=O)[C@@H](N)CO)C(=O)N[C@@H](C)C(=O)N[C@@H](CC(C)C)C(=O)NCC(=O)N[C@@H](CCCNC(=N)N)C(=O)N[C@@H](CO)C(=O)NCC(=O)N[C@@H](Cc1ccccc1)C(=O)N[C@@H](CCCNC(=N)N)C(=O)N1CCC[C@H]1C(N)=O [NLP-2-1] (H-SIALGRSGFRP-NH2; N-terminus assumed) | activated these receptors in a dose-dependent manner | activated these receptors in a dose-dependent manner |
| 158 nM | 6 | CC[C@H](C)[C@H](NC(=O)[C@H](C)NC(=O)[C@H](CCSC)NC(=O)[C@@H](N)CO)C(=O)NCC(=O)N[C@@H](CCCNC(=N)N)C(=O)N[C@@H](C)C(=O)NCC(=O)N[C@@H](CCSC)C(=O)N[C@@H](CCCNC(=N)N)C(=O)N1CCC[C@H]1C(N)=O [NLP-23-2] (H-SMAIGRAGMRP-NH2; N-terminus assumed) | activated these receptors in a dose-dependent manner | activated these receptors in a dose-dependent manner |
| > 6000 nM and 6700 nM | 4.1 | CC[C@H](C)[C@H](NC(=O)[C@H](C)NC(=O)[C@@H](NC(=O)[C@@H](N)CO)[C@@H](C)CC)C(=O)NCC(=O)N[C@@H](CCCNC(=N)N)C(=O)N[C@@H](C)C(=O)NCC(=O)N[C@@H](Cc1ccccc1)C(=O)N[C@@H](CCCNC(=N)N)C(=O)N1CCC[C@H]1C(N)=O [NLP-22] (H-SIAIGRAGFRP-NH2; N-terminus assumed) | activated these receptors in a dose-dependent manner | activated these receptors in a dose-dependent manner |
